# In BindingDB's records for patent US20230312550 (Astrazeneca, 2023):
# Molecular target: T1, Prolyl endopeptidase FAP (Homo sapiens, UniProt Q12884)
# T1 sequence (Q12884 whole entry): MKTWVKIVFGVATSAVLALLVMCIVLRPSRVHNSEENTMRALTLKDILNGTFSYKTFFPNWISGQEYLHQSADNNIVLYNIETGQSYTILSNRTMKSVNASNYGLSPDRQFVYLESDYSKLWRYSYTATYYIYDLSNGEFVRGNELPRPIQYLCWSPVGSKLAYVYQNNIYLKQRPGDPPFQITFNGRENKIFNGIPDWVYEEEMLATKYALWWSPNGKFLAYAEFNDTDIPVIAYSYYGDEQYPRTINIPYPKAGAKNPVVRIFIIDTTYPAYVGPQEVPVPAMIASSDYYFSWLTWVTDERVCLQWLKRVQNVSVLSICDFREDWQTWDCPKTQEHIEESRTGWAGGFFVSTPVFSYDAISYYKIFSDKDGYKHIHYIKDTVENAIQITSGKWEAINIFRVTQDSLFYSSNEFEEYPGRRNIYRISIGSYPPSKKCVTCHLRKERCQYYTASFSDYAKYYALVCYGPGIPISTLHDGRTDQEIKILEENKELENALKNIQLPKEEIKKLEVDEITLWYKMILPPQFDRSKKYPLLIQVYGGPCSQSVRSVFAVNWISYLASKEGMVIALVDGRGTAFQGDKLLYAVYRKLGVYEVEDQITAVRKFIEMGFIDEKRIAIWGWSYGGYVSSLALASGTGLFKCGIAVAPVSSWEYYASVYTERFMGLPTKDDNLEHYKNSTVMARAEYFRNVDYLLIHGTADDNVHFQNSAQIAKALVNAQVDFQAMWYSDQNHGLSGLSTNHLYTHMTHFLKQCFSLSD
# Assay: hFAP Binding Assay
# Conditions: for kon: read-out: kon (M-1-s-1)
# Description: Table 1: Compounds were tested in a direct binding assay using 8K surface plasmon resonance biosensor (GE Healthcare) at 20° C. Immobilization of hFAP (M39-A757) on a CMD200M sensor chip (Xantec) was performed using standard amine coupling procedure in immobilization buffer (10 mM HEPES, 150 mM NaCl, 0.05% Tween20, pH 7.4). The surface was washed with 10 mM NaOH, 1M NaCl before being activated with EDC/NHS (GE Healthcare), followed by immobilization of hFAP (in 10 mM Acetate pH 5.0). Finally, the surface was deactivated by ethanolamine. Immobilization levels of hFAP were around 4000-6000 RU. The reference spot was treated as described, omitting the injection of hFAP. Compound concentration series were injected over the immobilized protein in increasing concentrations (2-500 nM) using single cycle kinetics in running buffer (20 mM TRIS, 150 mM NaCl, 0.05% Tween20, 1% DMSO, pH 7.4).
koff [s⁻¹],kon [M⁻¹ s⁻¹],SMILES
0.00066,5.4e+06,"Cc1ncccc1-c1ccc2nccc(C(=O)NCC(=O)N3CSC[C@H]3C#N)c2c1 [US20230312550, Example 128]"
0.00016,3.2e+06,"N#C[C@@H]1CSCN1C(=O)CNC(=O)c1ccnc2cc(Cl)c(N3CCOCC3)cc12 [US20230312550, Example 179]"
0.0004,4.1e+06,"N#C[C@@H]1CSCN1C(=O)CNC(=O)c1ccnc2ccc(N3CCSCC3)cc12 [US20230312550, Example 3]"
0.0001,1.8e+06,"C[C@H]1CCN(c2ccc3nccc(C(=O)NCC(=O)N4CSC[C@H]4C#N)c3c2)C1=O (single isomer, unassigned) [US20230312550, Example 201]"
0.00028,3e+06,"N#C[C@@H]1CSCN1C(=O)CNC(=O)c1ccnc2ccc(-c3ccnc(F)c3)cc12 [US20230312550, Example 124]"
7e-05,1.6e+06,"C[C@@H]1CCN(c2ccc3nccc(C(=O)NCC(=O)N4CSC[C@H]4C#N)c3c2)C1=O [US20230312550, Example 202]"
0.00026,2.3e+06,"N#C[C@@H]1CSCN1C(=O)CNC(=O)c1ccnc2ccc(N3CCC[C@@H]3C3CC3)cc12 [US20230312550, Example 199]"
4.8e-05,1.6e+06,"C[C@]1(O)CCN(c2ccc3nccc(C(=O)NCC(=O)N4CSC[C@H]4C#N)c3c2)C1 [US20230312550, Example 168]"
0.00017,8.8e+06,"N#C[C@@H]1CSCN1C(=O)CNC(=O)c1ccnc2ccc(N3CCC4(CC4)C3)cc12 [US20230312550, Example 49]"
5.9e-05,4.1e+06,"C[C@H]1COCCCN1c1ccc2nccc(C(=O)NCC(=O)N3CSC[C@H]3C#N)c2c1 [US20230312550, Example 63]"
0.00014,730000,"N#C[C@@H]1CSCN1C(=O)CNC(=O)c1ccnc2ccc(N3CCCCO3)cc12 [US20230312550, Example 1]"
6.6e-05,88000,"CC(C)n1nccc1-c1ccc2nccc(C(=O)NCC(=O)N3CSC[C@H]3C#N)c2c1 [US20230312550, Example 197]"
0.00017,1.7e+06,"N#C[C@@H]1CSCN1C(=O)CNC(=O)c1ccnc2ccc(N3CCCC[C@H](F)C3)cc12 [US20230312550, Example 60]"
2.6e-05,2.4e+06,"N#C[C@@H]1CSCN1C(=O)CNC(=O)c1ccnc2ccc(N3CCC4(CC3)COC4)cc12 [US20230312550, Example 229]"
9.2e-05,2.9e+06,"N#C[C@@H]1CSCN1C(=O)CNC(=O)c1ccnc2ccc(N3C[C@@H](F)[C@H](F)C3)cc12 [US20230312550, Example 214]"
2.9e-05,1.3e+06,"N#C[C@@H]1CSCN1C(=O)CNC(=O)c1ccnc2ccc(N3CCCCC3)cc12 [US20230312550, Example 32]"
6.4e-05,1.9e+06,"CC1(C)CCN(c2ccc3nccc(C(=O)NCC(=O)N4CSC[C@H]4C#N)c3c2)C1=O [US20230312550, Example 12]"
6.1e-05,3e+06,"N#C[C@@H]1CSCN1C(=O)CNC(=O)c1ccnc2ccc(N3CCOCC34CCC4)cc12 [US20230312550, Example 104]"
8.5e-05,710000,"C[C@H]1CCN(c2ccc3nccc(C(=O)NCC(=O)N4CSC[C@H]4C#N)c3c2)CCO1 [US20230312550, Example 62]"
0.0009,5.2e+06,"Cc1noc(C)c1-c1ccc2nccc(C(=O)NCC(=O)N3CSC[C@H]3C#N)c2c1 [US20230312550, Example 216]"
0.00096,6.2e+06,"N#C[C@@H]1CSCN1C(=O)CNC(=O)c1ccnc2ccc(-c3ccc(C(F)F)nc3)cc12 [US20230312550, Example 169]"
0.00012,8.3e+06,"N#C[C@@H]1CSCN1C(=O)CNC(=O)c1ccnc2ccc(N3CC4(CCC4)C3)cc12 [US20230312550, Example 17]"
5.4e-05,910000,"CCC1(O)CN(c2ccc3nccc(C(=O)NCC(=O)N4CSC[C@H]4C#N)c3c2)C1 [US20230312550, Example 154]"
2.8e-05,1.9e+06,"N#C[C@@H]1CSCN1C(=O)CNC(=O)c1ccnc2ccc(N3CCC4(CCOCC4)CC3)cc12 [US20230312550, Example 162]"
0.00016,4.9e+06,"N#C[C@@H]1CSCN1C(=O)CNC(=O)c1ccnc2ccc(N3CCC(C(F)(F)F)CC3)cc12 [US20230312550, Example 39]"

koff [s⁻¹],kon [M⁻¹ s⁻¹],SMILES
5.4e-05,1.8e+06,"COC1(C)CCN(c2ccc3nccc(C(=O)NCC(=O)N4CSC[C@H]4C#N)c3c2)CC1 [US20230312550, Example 42]"
0.00029,3.1e+06,"N#C[C@@H]1CSCN1C(=O)CNC(=O)c1ccnc2ccc(N3CC(CC(F)(F)F)C3)cc12 [US20230312550, Example 158]"
0.0002,2.4e+06,"N#C[C@@H]1CSCN1C(=O)CNC(=O)c1ccnc2ccc(-n3ccc4c3CCCC4)cc12 [US20230312550, Example 219]"
0.00011,2.9e+06,"C[C@]1(F)CCN(c2ccc3nccc(C(=O)NCC(=O)N4CSC[C@H]4C#N)c3c2)C1 [US20230312550, Example 198]"
6.6e-05,430000,"N#C[C@@H]1CSCN1C(=O)CNC(=O)c1ccnc2ccc(N3CCC34CCC4)cc12 [US20230312550, Example 19]"
6.1e-05,190000,"CN1CCC(F)(c2ccc3nccc(C(=O)NCC(=O)N4CSC[C@H]4C#N)c3c2)CC1 [US20230312550, Example 195]"
0.0002,6.6e+06,"CC(C)C1CN(c2ccc3nccc(C(=O)NCC(=O)N4CSC[C@H]4C#N)c3c2)C1 [US20230312550, Example 148]"
0.0013,1.8e+06,"N#C[C@@H]1CSCN1C(=O)CNC(=O)c1ccnc2ccc(-n3ccnc3-c3ccccc3)cc12 [US20230312550, Example 217]"
0.00034,4.2e+06,"CC1(C)CN(c2ccc3nccc(C(=O)NCC(=O)N4CSC[C@H]4C#N)c3c2)CCO1 [US20230312550, Example 88]"
5.9e-05,1.4e+06,"CC1(C)COC12CN(c1ccc3nccc(C(=O)NCC(=O)N4CSC[C@H]4C#N)c3c1)C2 [US20230312550, Example 18]"
9.8e-05,3.8e+06,"N#C[C@@H]1CSCN1C(=O)CNC(=O)c1ccnc2ccc(N3C[C@@H]4CC[C@H]3C4)cc12 (mixture of isomers) [US20230312550, Example 210]"
4.9e-05,2.2e+06,"N#C[C@@H]1CSCN1C(=O)CNC(=O)c1ccnc2ccc(N3CC4(COC4)C3)cc12 [US20230312550, Example 166]"
0.0038,410000,"N#C[C@@H]1CSCN1C(=O)CNC(=O)c1c(F)cnc2ccc(N3CCOCC3)cc12 [US20230312550, Example 2]"
5.2e-05,1.1e+06,"CC1(C)CCN(c2ccc3nccc(C(=O)NCC(=O)N4CSC[C@H]4C#N)c3c2)CC1 [US20230312550, Example 33]"
6.6e-05,1.2e+06,"N#C[C@@H]1CSCN1C(=O)CNC(=O)c1ccnc2ccc(N3C[C@@H]4CCC[C@@H]43)cc12 (mixture of isomers) [US20230312550, Example 156]"
4.5e-05,1.5e+06,"N#C[C@@H]1CSCN1C(=O)CNC(=O)c1ccnc2ccc(N3CC(CF)C3)cc12 [US20230312550, Example 113]"
4.3e-05,280000,"N#C[C@@H]1CSCN1C(=O)CNC(=O)c1ccnc2ccc(N3CC4(CC(C(F)(F)F)C4)C3)cc12 [US20230312550, Example 150]"
2.4e-05,2.3e+06,"N#C[C@@H]1CSCN1C(=O)CNC(=O)c1ccnc2ccc(N3C[C@@H]4C[C@H]3CO4)cc12 [US20230312550, Example 75]"
3.6e-05,1.4e+06,"N#C[C@@H]1CSCN1C(=O)CNC(=O)c1ccnc2ccc(N3CC4(CC4)C3)cc12 [US20230312550, Example 164]"
0.00022,3.1e+06,"N#C[C@@H]1CSCN1C(=O)CNC(=O)c1ccnc2ccc(N3CC(Cc4ccc(Cl)cc4)C3)cc12 [US20230312550, Example 187]"
0.00022,120000,"N#C[C@@H]1CSCN1C(=O)CNC(=O)c1ccnc2ccc(-c3ccnn3[C@H]3CCCCO3)cc12 [US20230312550, Example 176]"
0.00025,6.7e+06,"C[C@@H]1CCN(c2ccc3nccc(C(=O)NCC(=O)N4CSC[C@H]4C#N)c3c2)C1 [US20230312550, Example 55]"
0.00014,3e+06,"N#C[C@@H]1CSCN1C(=O)CNC(=O)c1ccnc2ccc(-c3ccc(F)cn3)cc12 [US20230312550, Example 125]"
3.9e-05,4.8e+06,"CC1CC2(C1)CN(c1ccc3nccc(C(=O)NCC(=O)N4CSC[C@H]4C#N)c3c1)C2 [US20230312550, Example 149]"
0.00016,2.6e+06,"CC(F)(F)CC1CN(c2ccc3nccc(C(=O)NCC(=O)N4CSC[C@H]4C#N)c3c2)C1 [US20230312550, Example 140]"
